In patent US20250134907A1, “FUSED DIAZEPINES AS AGONISTS OF THE INSULIN-LIKE 3 (INSL3) PEPTIDE RECEPTOR RXFP2 AND METHODS OF USE THEREOF” (The United States of America,as represented by the …, priority 2022, published 2025):

Target: T1, RXFP2 (Homo sapiens, UniProt Q8WXD0)
T1 construct: expressed in transfected cells
Assay: HTRF cAMP assay in HEK293T cells stably expressing RXFP2 (HEK-RXFP2)
Type: cell-based
Settings: for % EFF vs. 1 nM INSL3 (b): normalized to 1 nM INSL3 cAMP response; for % EFF vs. 100 nM INSL3 (c): normalized to 100 nM INSL3 cAMP response; for % EFF vs. 1 nM INSL3 (a): maximum cAMP response normalized to 1 nM INSL3 response
Experimental: Compound efficacy and EC50 were determined by measuring cAMP induction in vitro. HEK293T cells stably expressing RXFP2 (HEK-RXFP2) produce cAMP when RXFP2 is activated, which can be measured in an antibody-based immunoassay utilizing a fluorescent readout (cAMP Gs HiRange Kit, PerkinElmer, Waltham, MA). HEK-RXFP2 cells were seeded in 96-well plates in serum-free DMEM and incubated overnight at 37° C., 5% CO2. Plates were then treated with a compound titration up to 25 μM or INSL3 control, in the presence of isobutylmethylxanthine phosphodiesterase inhibitor (IBMX) at 200 μM to amplify the cAMP signal, for 1 hour at 37° C., 5% CO2 before being processed as per kit instructions. Table 7 lists the efficacy and EC50 of compounds tested under different experimental conditions. […] In condition (a), 20,000 cells were seeded per well in the 96 well plate, and efficacy was determined by normalizing the maximum compound cAMP response to the 1 nM INSL3 cAMP response (% Efficacy 1 nM INSL3 (a)). In condition (b), 10,000 cells were seeded per well, and compound response was normalized to the 1 nM INSL3 cAMP response (% Efficacy 1 nM INSL3 (b)). In condition (c), 7,500 cells were seeded per well, compound response was normalized to the 100 nM INSL3 cAMP response, and IBMX was omitted (% Efficacy 100 nM INSL3 (c)). A range is given when compounds were tested multiple times. Where compounds were tested under multiple experimental conditions, the EC50 listed for the corresponding condition is marked (a) through (c) to correlate. When EC50 could not be calculated from the dose-response curve, EC50 is listed as not determined (ND).

[1] = condition (b): 10,000 cells/well, IBMX 200 μM
[2] = condition (c): 7,500 cells/well, IBMX omitted
[3] = condition (a): 20,000 cells/well, IBMX 200 μM

T1 sequence (Q8WXD0 whole entry): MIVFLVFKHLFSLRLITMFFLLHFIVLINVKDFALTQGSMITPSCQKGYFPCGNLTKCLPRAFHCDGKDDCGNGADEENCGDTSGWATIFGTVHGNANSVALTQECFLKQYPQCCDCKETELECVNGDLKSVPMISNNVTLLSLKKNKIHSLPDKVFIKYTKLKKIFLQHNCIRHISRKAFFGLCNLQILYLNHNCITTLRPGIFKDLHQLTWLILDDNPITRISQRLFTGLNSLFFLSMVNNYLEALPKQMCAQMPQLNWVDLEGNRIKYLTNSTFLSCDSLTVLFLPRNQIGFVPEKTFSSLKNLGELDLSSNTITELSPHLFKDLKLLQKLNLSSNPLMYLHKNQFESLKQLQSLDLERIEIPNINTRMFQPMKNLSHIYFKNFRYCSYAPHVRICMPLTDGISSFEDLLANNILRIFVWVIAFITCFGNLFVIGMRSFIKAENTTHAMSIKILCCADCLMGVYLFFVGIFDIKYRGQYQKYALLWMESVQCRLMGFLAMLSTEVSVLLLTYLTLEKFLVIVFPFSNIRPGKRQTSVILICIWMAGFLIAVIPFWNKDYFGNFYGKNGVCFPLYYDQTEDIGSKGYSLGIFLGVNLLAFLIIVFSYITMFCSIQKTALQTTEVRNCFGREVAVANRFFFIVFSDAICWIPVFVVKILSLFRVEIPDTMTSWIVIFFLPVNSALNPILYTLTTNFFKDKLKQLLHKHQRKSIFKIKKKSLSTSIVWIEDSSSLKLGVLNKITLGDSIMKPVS

Structure (SMILES) | % EFF vs. 1 nM INSL3 (b) [1] | EC50 [2] | % EFF vs. 100 nM INSL3 (c) [2] | other results
O=C1Nc2ccc(-c3cc(C(F)(F)F)ccc3F)cc2C(=O)N2CCN(C(=O)COc3ccc(OC(F)(F)F)cc3Cl)CC12 (racemic) [Example 104, 2-(2-(2-chloro-4-(trifluoromethoxy)phenoxy)acetyl)-8-(2-fluoro-5-(trifluoromethyl)phenyl)-1,3,4,12a-tetrahydrobenzo[e]pyrazino[1,2-a][1,4]diazepine-6,12 (2H, 11H)-dione] | 67.7% | – | – | EC50 [1]: 17.7 nM
N#Cc1cc(-c2ccc3c(c2)C(=O)N2CCN(C(=O)COc4ccc(OC(F)(F)F)cc4Cl)CC2C(=O)N3)cc(C(F)(F)F)c1 (racemic) [Example 106, 3-(2-(2-(2-chloro-4-(trifluoromethoxy)phenoxy)acetyl)-6,12-dioxo-1,2,3,4,6,11,12,12a-octahydrobenzo[e]pyrazino[1,2-a]1[1,4]diazepin-8-yl)-5-(trifluoromethyl)benzonitrile] | 50.30% | – | – | EC50 [1]: 31.5 nM
O=C1Nc2cnc(-c3cc(C(F)(F)F)cc(C(F)(F)F)c3)cc2C(=O)N2CCN(C(=O)COc3ccc(OC(F)(F)F)cc3I)C[C@@H]12 (single isomer, unassigned) [Example 196] | – | 984 nM | 109.23% | –
O=C1Nc2cnc(-c3cc(C(F)(F)F)cc(C(F)(F)F)c3)cc2C(=O)N2CCN(C(=O)COc3ccc(OC(F)(F)F)cc3Br)C[C@@H]12 (single isomer, unassigned) [Example 197] | – | – | 104.06% | –
O=C1Nc2ncc(-c3cc(C(F)(F)F)cc(C(F)(F)F)c3)cc2C(=O)N2CCN(C(=O)COc3ccc(OC(F)(F)F)cc3I)C[C@@H]12 (single isomer, unassigned) [Example 202] | – | 40.7 nM | 102.23% | –
O=C1Nc2ccc(-c3cc(C(F)(F)F)cc(C(F)(F)F)c3)nc2C(=O)N2CCN(C(=O)COc3ccc(OC(F)(F)F)cc3I)C[C@@H]12 (single isomer, unassigned) [Example 206] | – | 563 nM | 60.89% | –
Cc1cc(OC(F)(F)F)ccc1OCC(=O)N1CCN2C(=O)c3cc(-c4ccnc(C(F)(F)F)c4)ccc3NC(=O)C2C1 (centres unmarked) [Example 40, 2-(2-(2-methyl-4-(trifluoromethoxy)phenoxy)acetyl)-8-(2-(trifluoromethyl)pyridin-4-yl)-1,3,4,12a-tetrahydrobenzo[e]pyrazino[1,2-a][1,4]diazepine-6,12 (2H, 11H)-dione] | 47.69% | – | – | –
Cc1cc(OC(F)(F)F)ccc1OCC(=O)N1CCN2C(=O)c3cc(-c4cncc(C(F)(F)F)c4)ccc3NC(=O)C2C1 (centres unmarked) [Example 41, 2-(2-(2-methyl-4-(trifluoromethoxy)phenoxy)acetyl)-8-(5-(trifluoromethyl)pyridin-3-yl)-1,3,4,12a-tetrahydrobenzo[e]pyrazino[1,2-a][1,4]diazepine-6,12 (2H, 11H)-dione] | 33.78% | – | – | –
O=C1Nc2ccc(-c3cccc(C(F)(F)F)c3)cc2C(=O)N2CCN(C(=O)COc3ccc(OC(F)F)cc3F)CC12 (centres unmarked) [Example 55, 2-(2-(4-(difluoromethoxy)-2-fluorophenoxy)acetyl)-8-(3-(trifluoromethyl)phenyl)-1,3,4,12a-tetrahydrobenzo[e]pyrazino[1,2-a][1,4]diazepine-6,12 (2H, 11H)-dione] | – | – | – | EC50 [3]: 24.4 to 59.4 nM; % EFF vs. 1 nM INSL3 (a) [3]: 20.07-42.35%
Cc1cc(OC(F)(F)F)ccc1OCC(=O)N1CCN2C(=O)c3cc(-c4cccc(C(F)(F)F)c4)ccc3NC(=O)C2C1 (centres unmarked) [Example 64, 2-(2-(2-methyl-4-(trifluoromethoxy)phenoxy)acetyl)-8-(3-(trifluoromethyl)phenyl)-1,3,4,12a-tetrahydrobenzo[e]pyrazino[1,2-a][1,4]diazepine-6,12 (2H, 11H)-dione] | – | – | – | EC50 [3]: 37 to 56.6 nM; % EFF vs. 1 nM INSL3 (a) [3]: 56.29-60.35%
